Values of other authors, collected in publication PMC5465828 (Research in Pharmaceutical Sciences, 2017).
pIC50: −log10 of the molar value.

Tested on: human colon carcinoma HCT116 cell line
Conditions: read-out: IC50 of doxorubicin in HCT116 cells; doxorubicin alone

pIC50: 6.70
Compound: COc1cccc2c1C(=O)c1c(O)c3c(c(O)c1C2=O)C[C@@](O)(C(=O)CO)C[C@@H]3O[C@H]1C[C@H](N)[C@H](O)[C@H](C)O1 [doxorubicin]
